Test results: ChEMBL document CHEMBL1158135, “Sulfated alkenes from the echinus Temnopleurus hardwickii” (J Nat Prod, 2006)

Test system: P388
Assay: Cytotoxicity against mouse P388 cells after 72 hrs by MTT assay
Format: functional, cell-based
Conditions: P388, 72 h

SMILES: CC(=O)CC(C)(C)N.CC(C)=CCC[C@@H](C)/C=C/CCOS(=O)(=O)O
- IC50: 290 µM
